Measurements from patent US9388142B2, “Quinazolinone derivatives as PARP inhibitors” (MERCK PATENT GMBH, priority 2012, dated 2016).
Read-outs that look alike come from different tables or passages of the source.

Key:
[1] = at 30 μM; cited from earlier work
[2] = biological target: GST-tagged Tankyrase-2 (873-1166 aa) (Homo sapiens, UniProt Q9H2K2); test: biochemical
From the text: (§1) aq (aqueous), h (hour), g (gram), L (liter), mg (milligram), MHz (Megahertz), min. (minute), mm (millimeter), mmol (millimole), mM (millimolar), m.p. (melting point), eq (equivalent), mL (milliliter), L (microliter), ACN (acetonitrile), AcOH (acetic acid), CDCl3 (deuterated chloroform), CD3OD (deuterated methanol), CH3CN (acetonitrile), c-hex (cyclohexane), DCC (dicyclohexyl carbodiimide), DCM (dichloromethane), DIC (diisopropyl carbodiimide), DIEA (diisopropylethyl-amine), DMF (dimethylformamide), DMSO (dimethylsulfoxide), DMSO-d6 (deuterated dimethylsulfoxide), EDC (1-(3-dimethyl-amino-propyl)-3-ethylcarbodiimide), ESI (Electro-spray ionization), EtOAc (ethyl acetate), Et2O (diethyl ether), EtOH (ethanol), HATU (dimethylamino-([1,2,3]triazolo[4,5-b]pyridin-3-yloxy)-methylene]-dimethylammonium hexafluorophosphate), HPLC (High Performance Liquid Chromatography), i-PrOH (2-propanol), K2CO3 (potassium carbonate), LC (Liquid Chromatography), MeOH (methanol), MgSO4 (magnesium sulfate), MS (mass spectrometry), MTBE (Methyl tert-butyl ether), NaHCO3 (sodium bicarbonate), NaBH4 (sodium borohydride), NMM (N-methyl morpholine), NMR (Nuclear Magnetic Resonance), PyBOP (benzotriazole-1-yl-oxy-trispyrrolidino-phosphonium hexafluorophosphate), RT (room temperature), Rt (retention time), SPE (solid phase extraction), TBTU (2-(1-H-benzotriazole-1-yl)-1,1,3,3-tetramethyluromium tetrafluoro borate), TEA (triethylamine), TFA (trifluoroacetic acid), THF (tetrahydrofuran), TLC (Thin Layer Chromatography), UV (Ultraviolet). Description of the In Vitro Assays Abbreviations: GST=Glutathione-S-transferase FRET=Fluorescence resonance energy transfer HTRF®=(homogenous time resolved fluorescence) HEPES=4-(2-hydroxyethyl)-1-piperazine ethanesulfonic acid buffer DTT=Dithiothreitol BSA=bovine serum albumin CHAPS=detergent; CHAPS=3[(3-cholamidopropyl)dimethylammonio]-1-propanesulfonate Streptavidin-XLent® is a high grade streptavidin-XL665 conjugate for which the coupling conditions have been optimized to yield a conjugate with enhanced performances for some assays, particularly those requiring high sensitivity.
(§2) The autoparsylation assay is run in two steps: the enzymatic reaction in which GST-tagged Tankyrase-1, resp Tankyrase-2 transferred biotinylated ADP-ribose to itself from biotinylated NAD as co-substrate and the detection reaction where a time resolved FRET between cryptate labelled anti-GST bound to the GST tag of the enzyme and Xlent® labelled-streptavidin bound the biotin-parsylation residue is analysed. The autoparsylation activity was detectable directly via the increase in HTRF signal.
(§3) The autoparsylation assay is performed as 384-well HTRF® (Cisbio, Codolet, France) assay format in Greiner low volume nb 384-well microtiter plates and is used for high throughput screen. […] The reaction is stopped by the addition of 1 μl 50 mM EDTA solution. […] The ratio of the emission signals is determined. The full value used is the inhibitor-free reaction. […] The inhibitory values (IC50) are determined using either the program Symyx Assay Explorer® or Condosseo® from GeneData.

[3] = biological target: T1, GST-tagged Tankyrase-1 (1023-1327 aa) (Homo sapiens, UniProt O95271); test: biochemical; conditions: read-out: IC50 tankyrase 1 (enzyme assay)
T1 construct: GST-tagged Tankyrase-1 (1023-1327 aa)
T1 sequence (O95271 1023-1327): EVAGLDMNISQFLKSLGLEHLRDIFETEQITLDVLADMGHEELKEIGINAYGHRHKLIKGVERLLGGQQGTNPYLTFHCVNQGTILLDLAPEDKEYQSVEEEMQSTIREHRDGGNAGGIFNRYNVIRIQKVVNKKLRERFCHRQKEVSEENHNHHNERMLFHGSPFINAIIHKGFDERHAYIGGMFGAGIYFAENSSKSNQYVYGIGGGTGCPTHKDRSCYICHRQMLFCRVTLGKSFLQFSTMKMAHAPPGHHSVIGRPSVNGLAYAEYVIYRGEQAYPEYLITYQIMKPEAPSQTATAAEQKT
From the text: as §1, §2, §3

tankyrase 1/2 = test: Cellular inhibition of tankyrase: increase of Axin2 level in DLD1 cells (Luminex); format: cell-based; conditions: read-out: EC50 tankyrase 1/2 (cell assay), 24 hours
Description: Measurement of Cellular Inhibition of Tankyrase
Cells of the colon carcinoma cell line DLD1 are plated in 96 well plates with 1.5×10^4 cells per well. Next day, cells are treated with a serial dilution of test compound in seven steps as triplicates with a final DMSO concentration of 0.3%. After 24 hours, cells are lysed in lysis buffer (20 mM Tris/HCl pH 8.0, 150 mM NaCl, 1% NP40, 10% Glycerol) and lysates are cleared by centrifugation through a 96 well filter plate (0.65 μm). […] The amount of isolated Axin2 protein is determined in a Luminex^200 machine (Luminex Corporation) according to the manufacturer's instruction by counting 100 events per well. […] For analysis, the obtained data are normalized against the untreated solvent control and fitted for determination of the EC50 values using the Assay Explorer software (Accelrys).

DLD-1-cancer cells = conditions: cited from earlier work
β-catenin = conditions: by increasing the levels of the AXIN1 and AXIN2 proteins; cited from earlier work
[4] = biological target: GST-tagged Tnks-2 (873-1166 aa) (Homo sapiens, UniProt Q9H2K2); test: biochemical
Sequence of GST-tagged Tnks-2 (873-1166 aa) (Q9H2K2 873-1166): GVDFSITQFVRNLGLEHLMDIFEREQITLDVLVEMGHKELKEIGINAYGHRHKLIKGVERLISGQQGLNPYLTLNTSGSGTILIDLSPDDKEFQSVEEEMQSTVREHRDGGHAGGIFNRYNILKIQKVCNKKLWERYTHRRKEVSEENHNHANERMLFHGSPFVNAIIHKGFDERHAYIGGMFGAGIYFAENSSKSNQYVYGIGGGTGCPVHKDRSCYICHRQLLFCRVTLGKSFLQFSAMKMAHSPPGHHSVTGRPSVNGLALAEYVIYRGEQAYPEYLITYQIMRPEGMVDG
Description: (§4) Description of the TNKS1 and TNKS2 ELISA Assay
(§5) Then the activity assay with biotinylated NAD is performed in the absence/presence of the compounds. During the enzymatic reaction GST tagged TNKS transfers biotinylated ADP-ribose to itself from biotinylated NAD as co-substrate. For the detection streptavidin-HRP conjugate is added that binds to the biotinylated TNKS and is thereby captured to the plates. The amount of biotinylated resp. autoparsylated TNKS is detected with a luminescence substrate for HRP. The level of the luminescence signal correlates directly with the amount of autoparsylated TNKS and therefore with activity of TNKS.
(§6) The activity ELISA is performed in 384 well Glutathione coated microtiter plates (Express capture Glutathione coated plate, Biocat, Heidelberg, Germany). The plates are pre-equilibrated with PBS. […] The plates are washed 3 times with PBS-Tween-20. The wells are blocked by incubation at room temperature for 20 minutes with 50 μl blocking buffer (PBS, 0.05% Tween-20, 0.5% BSA). Afterwards the plates are washed 3 times with PBS-Tween-20. […] The reaction is stopped by 3 times washing with PBS-Tween-20. For the detection 50 μl of 20 ng/μl Streptavidin, HRP conjugate (MoBiTec, Gottingen, Germany) in PBS/0.05% Tween-20/0.01% BSA are added and the plates are incubated for 30 minutes at room temperature. After three times washing with PBS-Tween-20 50 μl of SuperSignal ELISA Femto Maximum sensitivity substrate solution (ThermoFisherScientific (Pierce), Bonn, Germany) are added. Following a 1 minute incubation at room temperature luminescence signals are measured with an Envision multimode reader (Perkin Elmer LAS Germany GmbH) at 700 nm. The full value used is the inhibitor-free reaction. […] The inhibitory values (IC50) are determined using either the program Symyx Assay Explorer® or Condosseo® from GeneData.

[5] = biological target: T2, GST-tagged Tnks-1 (1023-1327 aa) (Homo sapiens, UniProt O95271); test: TNKS1 activity ELISA (autoparsylation assay); format: biochemical
T2 construct: GST-tagged Tnks-1 (1023-1327 aa, prepared in-house); made in house
T2 sequence (O95271 1023-1327): as the sequence (O95271 1023-1327) above
Description: as §4, §5, §6

His-tagged Parp-1 = biological target: T3, His-tagged Parp-1 (Homo sapiens, UniProt P09874); test: PARP-1 autoparsylation assay (HTRF); format: biochemical
T3 construct: purchased Enzo Life Sciences GmbH, Lörrach, Germany
T3 sequence (P09874 whole entry): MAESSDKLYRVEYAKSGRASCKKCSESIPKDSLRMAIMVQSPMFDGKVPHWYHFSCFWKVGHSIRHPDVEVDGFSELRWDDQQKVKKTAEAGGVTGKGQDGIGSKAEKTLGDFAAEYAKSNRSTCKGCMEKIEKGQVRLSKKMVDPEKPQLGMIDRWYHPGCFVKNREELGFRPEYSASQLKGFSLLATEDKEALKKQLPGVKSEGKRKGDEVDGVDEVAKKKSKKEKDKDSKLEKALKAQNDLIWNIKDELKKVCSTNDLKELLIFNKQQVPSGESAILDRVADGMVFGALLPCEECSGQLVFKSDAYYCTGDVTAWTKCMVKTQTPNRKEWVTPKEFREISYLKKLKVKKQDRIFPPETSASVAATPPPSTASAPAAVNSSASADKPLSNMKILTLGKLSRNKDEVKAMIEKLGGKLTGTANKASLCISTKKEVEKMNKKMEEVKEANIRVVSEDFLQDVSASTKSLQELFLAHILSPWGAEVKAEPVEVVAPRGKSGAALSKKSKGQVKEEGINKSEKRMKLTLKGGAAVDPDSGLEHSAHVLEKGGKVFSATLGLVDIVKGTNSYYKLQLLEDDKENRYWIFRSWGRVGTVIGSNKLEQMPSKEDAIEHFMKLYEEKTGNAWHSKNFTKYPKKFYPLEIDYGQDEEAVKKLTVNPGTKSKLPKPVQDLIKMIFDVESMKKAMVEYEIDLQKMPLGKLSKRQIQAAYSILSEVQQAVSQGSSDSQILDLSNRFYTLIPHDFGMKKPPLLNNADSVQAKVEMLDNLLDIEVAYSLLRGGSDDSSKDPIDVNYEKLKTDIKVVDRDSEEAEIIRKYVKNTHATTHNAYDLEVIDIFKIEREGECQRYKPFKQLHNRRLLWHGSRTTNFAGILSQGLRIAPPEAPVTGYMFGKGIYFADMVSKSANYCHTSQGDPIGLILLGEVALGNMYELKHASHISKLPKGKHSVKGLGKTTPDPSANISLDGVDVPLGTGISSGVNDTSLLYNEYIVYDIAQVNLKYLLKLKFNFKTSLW
From the text: Description of the PARP1 Assay
Biochemical Activity Testing of PARP-1: Autoparsylation Assay
as §2, with “His-tagged Parp-1 transfers” for “GST-tagged Tankyrase-1, resp Tankyrase-2 transferred”, “ADP-ribose/ADP-ribose” for “ADP-ribose”, “NAD/NAD” for “NAD”, “anti-His antibody” for “anti-GST”, “His” for “GST”, “is” for “was”
The autoparsylation assay is performed as 384-well HTRF® (Cisbio, Codolet, France) assay format in Greiner low volume nb 384-well microtiter plates. 35 nM His-tagged Parp-1 (human, recombinant, Enzo Life Sciences GmbH, Lörrach, Germany) and a mixture of 125 nM bio-NAD (Biolog, Life science Inst., Bremen, Germany) and 800 nM NAD as co-substrate are incubated in a total volume of 6 μl (100 mM Tris/HCl, 4 mM Mg-chloride, 0.01% IGEPAL® CA630, 1 mM DTT, 0.5% DMSO, pH 8, 13 ng/μl activated DNA (BPS Bioscience, San Diego, US)) in the absence or presence of the test compound (10 dilution concentrations) for 150 min at 23° C. The reaction is stopped by the addition of 4 μl of the Stop/detection solution (70 nM SA-Xlent® (Cisbio, Codolet, France), 2.5 nM Anti-His-K® (Eu-labelled anti-His, Cisbio, Codolet, France) in 50 mM HEPES, 400 mM KF, 0.1% BSA, 20 mM EDTA, pH 7.0). After 1 h incubation at room temperature the HTRF iss measured with an Envision multimode reader (Perkin Elmer LAS Germany GmbH) at excitation wavelength 340 nm (laser mode) and emission wavelengths 615 nm and 665 nm. The ratio of the emission signals is determined. The full value used is the inhibitor-free reaction. The pharmacological zero value used is Olaparib (LClabs, Woburn, US) in a final concentration of 1 The inhibitory values (IC50) are determined using either the program Symyx Assay Explorer® or Condosseo® from GeneData.

Sequence of GST-tagged Tankyrase-2 (873-1166 aa) (Q9H2K2 873-1166): as the sequence (Q9H2K2 873-1166) above

SMILES	IC50 [2] [nM]	IC50 [3] [nM]	IC50 (His-tagged Parp-1) [nM]	further results
O=c1[nH]c(-c2ccc3c(c2)OCO3)nc2ccccc12				cellular assay [1]: no effect
Cc1cc(F)cc2c(=O)[nH]c(-c3ccc(N4CCCN(C)CC4)cc3)nc12 [Compound A32, 6-fluoro-8-methyl-2-[4-(4-methyl-[1,4]diazepan-1-yl)-phenyl]-3H-quinazolin-4-one]	300 to 3000	300 to 3000		EC50 (tankyrase 1/2): 300 to 3000 nM
Oc1nc(-c2ccc(C(F)(F)F)cc2)nc2c1CSCC2 [XAV939]				growth of DLD-1-cancer cells (DLD-1-cancer cells): inhibits growth; Wnt-stimulated accumulation of β-catenin (β-catenin): blocked
Cc1cc(F)cc2c(=O)[nH]c(-c3ccc(N4CCS(=O)(=O)CC4)cc3)nc12 [Compound A30, 2-[4-(1,1-dioxo-1|6-thiomorpholin-4-yl)-phenyl]-6-fluoro-8-methyl-3H-quinazolin-4-one]	300 to 3000	300 to 3000	300 to 3000	IC50 [4]: < 300 nM; EC50 (tankyrase 1/2): < 300 nM; IC50 [5]: < 300 nM
CC(C)c1ccc(-c2nc3ccc(F)cc3c(=O)[nH]2)cc1 [Compound A22, 6-fluoro-2-(4-isopropyl-phenyl)-3H-quinazolin-4-one]	300 to 3000	300 to 3000		
CC(C)(O)c1ccc(-c2nc3cccc(F)c3c(=O)[nH]2)cc1 [Compound A4, 5-fluoro-2-[4-(1-hydroxy-1-methyl-ethyl)-phenyl]-3H-quinazolin-4-one]		< 300	300 to 3000	IC50 ([5]; read-out: IC50 TNKS1 ELISA): < 300 nM
CC(C)(C)c1ccc(-c2nc3ccc(F)cc3c(=O)[nH]2)cc1 [Compound A9, 2-(4-tert-butyl-phenyl)-6-fluoro-3H-quinazolin-4-one]		< 300	3000 to 50000	IC50 ([5]; read-out: IC50 TNKS1 ELISA): < 300 nM
